Laboratory results: US20060122106A1, “Prevention and/or treatment of inflammatory bowel disease using pyy or agonists thereof” (Amylin Pharmaceuticals, Inc, priority 2002, published 2006)

Tested on: rat model of chronic colonic inflammation (colitis induced by TNBS)
Assay: TNBS hapten-induced colitis model of inflammatory bowel disease (Example 1)
Type: in vivo
Settings: for gross morphologic damage score index: male HSD rats, colitis by 30 mg/kg TNBS intracolonic, colon scored (0-5, Table 1) four days after induction, saline control 3.24±0.66, PYY[3-36] 900 μg/kg s.c. twice daily, Depo-Medrol 600 μg/kg i.m., 5-ASA 200 mg/kg intracolonic; for spleen weight (systemic immune suppression): rat, in vivo
Protocol: Animal preparation: 10-11 weeks old male HSD rats, ranging 250-300 grams, were housed in a 12:12 light:dark cycle, and allowed ad libitum access to a standard rodent diet (Teklad L M 485, Madison, Wis.) and water. The animals were fasted for 24 hours before the experiment. Procedure: A simple and reproducible rat model of chronic colonic inflammation has been previously described by Morris G P, et al., “Hapten-induced model of chronic inflammation and ulceration in the rat colon.” Gastroenterology. 1989; 96:795-803. […] Rats were anesthetized with 3% isofluorane and placed on a regulated heating pad set at 37° C. A gavage needle was inserted rectally into the colon 7 cm. The hapten trinitrobenzenesulfonic acid (TNBS) dissolved in 50% ethanol (v/v) was delivered into the lumen of the colon through the gavage needle at a dose of 30 mg/kg, in a total volume of 0.4-0.6 mL, as described in Mazelin, supra. Control groups received saline solution (NaCl 0.9%) intracolonically. Four days after induction of colitis, the colon was resected from anesthetized rats, which were then euthanized by decapitation. Weights of excised colon and spleen were measured, and the colons photographed for scoring of gross morphologic damage according to Table 1 before division into 3 parts. The segment of colon 1 cm from the cecum was fixed in 10% formalin. Other segments were immediately frozen on dry ice. Inflammation was defined as regions of hyperemia and bowel wall thickening. […] [table] For this assay, 5 treatment groups were set up as follows: • Group A (n=3). intracolonic saline with subcutaneous treatment of saline; • Group B (n=8). subcutaneous treatment of saline prior to induction of colitis by 30 mg/kg TNBS; • Group C (n=10). […] Positive control—intramuscular injection of Depo-Medrol 600 μg/kg 60 min prior to induction of colitis by 30 mg/kg TNBS; • Group E (n=10). Positive control, 5-amino salicylic acid (Sigma) suspension at 200 mg/kg intracolonic administration in 0.5 mL saline, 60 min before induction of colitis and daily thereafter. Results

| spleen weight (systemic immune suppression) | SMILES | gross morphologic damage score index |
| --- | --- | --- |
| not decreased | Nc1ccc(O)c(C(=O)O)c1 [5-ASA, 5-aminosalicylic acid] | 1.62±0.62 |
| decreased | CC(=O)OCC(=O)[C@@]1(O)CC[C@H]2[C@@H]3C[C@H](C)C4=CC(=O)C=C[C@]4(C)[C@H]3[C@@H](O)C[C@@]21C [Depo-Medrol] | 1.12±0.26 |
